As a reminder, the IC50 is the concentration that gives 50% inhibition.

SMILES strings stand for the structures. Read-outs that look alike come from different tables or passages of the source.

In test [1] the target is bovine brain purified PI 3-kinase. The test can be described thus: Assay of purified PI 3-kinase activity (32P incorporation into phosphatidylinositol, TLC/scintillation). In kind it is biochemical. Here is the method:
In another, preferred, method, PI 3-kinase was prepared from bovine brain. Two bovine brains (wet weight about 900 g) were obtained from a local slaughterhouse within minutes of slaughter, packed on ice, and homogenized within one hour. Brains were trimmed of excess fat and blood vessels and then homogenized using a Tekmar Tissuemizer (Cincinnati, Ohio) at 4° C. in 20 mM of Tris(pH 8.3) containing 250 mM of sucrose, 6 mM of β-mercaptoethanol, 1 μg/ml of leupeptin, 1 μg/ml of pepstatin A, 0.4 mM of PMSF, and 1 mM of MgCl2.
Following centrifugation for 60 minutes at 10,000×g, the pH of the supernatant (about 1200 mL) was lowered to 5.75 using dropwise addition of 1M acetic acid at 4° C. After stirring for an additional 15 minutes at 4° C., the solution was centrifuged for 60 minutes at 13,500×g. The supernatant was discarded. Pellets were resuspended in Buffer A (20 mM of Tris, pH 8.3, containing 6 mM of β-mercaptoethanol, 0.1 mM of ethylene glycol-bis(β-aminoethyl ether) N,N,N',N'-tetraacetic acid (EGTA), 1 μg/mL of leupeptin, 1 μg/mL of pepstatin A, and 1 mM of MgCl2), and loaded onto a Fast Flow Q Sepharose column (300 ml) at a flow rate of 5 mL/min at 4° C. […]
PI 3-kinase activity was measured as previously described by Matter, W. F., et al., Biochemical and Biophysical Research Communications, 186: 624-631 (1992). […]

For test [2], the system named is PI 4-kinase. The test can be described thus: Effect on PI 4-kinase. In kind it is biochemical.

As to `COC[C@H]1OC(=O)c2coc3c2[C@@]1(C)C1=C(C3=O)[C@@H]2CC[C@H](O)[C@@]2(C)C[C@H]1OC(C)=O` [17β-hydroxywortmannin], the IC50 in test [1] came out at 0.2 ng/mL; in test [1] (molar value printed in parentheses, read-out: IC50), 0.46 nM. The “effect on PI 4-kinase” value in test [2] was “no effect”.

The record behind these values is patent US5504103A, “Inhibition of phosphatidylinositol 3-kinase with 17 β-hydroxywortmannin and analogs thereof” (Eli Lilly and Company, priority 1993, dated 1996).
